The values below come from patent US20060127980A1, “Human excitatory amino acid transporter-2 gene promoter and uses thereof” (priority 2003, published 2006).

For one assay, the system named is hEAAT2 mRNA. Put plainly: Northern blot of hEAAT2 mRNA in PHFA treated with modulators. The format is cell-based, human. As for the experimental part: (§1) FIG. 4A-D. Effect of modulators of hEAAT2 activity on hEAAT2 expression and hEAAT2 promoter activity in PHFA. A. A Northern analysis of hEAAT2 and GAPDH mRNA expression following treatment with EGF (30 ng/ml), TGF-α (30 ng/ml), dbcAMP (200 μM, bromo-cAMP (100 μM) or TNF-α (200 U/ml) for 7 days. B. Nuclear run-on assays determining the relative rates of hEAAT2 and GAPDH transcription as a function of 7-day treatment with the same concentrations of the indicated agents. C. A time course of mRNA expression of hEAAT2 and GAPDH following treatment with EGF, bromo-cAMP or TNF-α (same concentrations as in A.). D. Fold luciferase activity in PHFA transfected with flhEAAT2Prom-luc or various deletion mutants of hEAAT2 and non-transfected controls treated with the indicated compounds for four days.
(§2) Northern and Western Blotting Assays. Total cellular RNA was isolated by the guanidinium/phenol extraction method and Northern blotting was performed as described (Huang et al., 2001, Oncogene 20(48):7051-7063; Su et al., 2000, Oncogene 19(30):3411-3421; Su et al., 2001, Nucleic Acids Res 29(8):1661-1671). Western blotting assays were performed as described (Su et al., 1998, Proc Natl Acad Sci USA 95(24):14400-14405; Su et al., 2002, Oncogene 21(22):3592-602).
Positive and Negative Regulation of hEAAT2 Transcription, Promoter Activity and mRNA Levels in PHFA. Several enhancers of GLT-1 expression in rat astrocytes have been identified, including epidermal growth factor (EGF), transforming growth factor-α (TGF-α) and dibutyryl cyclic AMP (dbcAMP) (Swanson et al., 1997, J Neurosci 17(3):932-940; Zelenaia et al., 2000, Mol Pharmacol 57(4):667-678). Based on these considerations, experiments were performed to determine if these agents similarly modify human hEAAT2 expression in PHFA. Consistent with previous observations in rat astrocytes, 7-day treatment with EGF, TGF-α, and two analogs of cAMP, dbcAMP and bromo-cAMP, stimulated hEAAT2 mRNA expression in PHFA, whereas TNF-α decreased expression (FIG. 4B). […] In contrast, TNF-α decreased expression by 48 h (FIG. 4C).

Another assay has as its system hEAAT2 transcription. Put plainly: Nuclear run-on assay of hEAAT2 transcription in PHFA. The format is cell-based, human. Conditions: 7-day treatment. As to the method:
as §1
Primer Extension Analysis and Nuclear Run-on Assays. Primer extension assays were performed as described (Su et al., 2000, Oncogene 19(30):3411-3421). A primer with the sequence 5′-[…]-3′ (SEQ ID NO:6) complementary to the 5′ UTR of the hEAAT2 cDNA was used for this assay. Nuclear run-on assays were performed as described (Su et al., 1997, Proc Natl Acad Sci USA 94(17):9125-9130).
To examine whether stimulation of hEAAT2 expression involves transcriptional changes, nuclear run-on assays were performed.

Another assay relates to hEAAT2 promoter. Put plainly: flhEAAT2Prom-luc and deletion mutant luciferase reporter assay in PHFA treated with modulators. It is filed as cell-based, human. As to the method:
as §1
Construction of hEAAT2 Promoter Deletion Mutants and Performance of the Luciferase Assays. 5′-deletion mutants of the hEAAT2 promoter were made with exonuclease III digestion using the Erase-A-Base System (Promega) as described for the PEG-3 promoter (Su et al., 2000, Oncogene 19(30):3411-3421). The flhEAAT2Prom-luc and flhEAAT2Prom-luc deletion mutants were cloned into the pGL3-basic luciferase reporter vector (Promega) and luciferase reporter assays were performed as described (Su et al., 2000, Oncogene 19(30):3411-3421; Su et al., 2001, Nucleic Acids Res 29(8):1661-1671), except that instead of using lipofectamine, which was toxic to PHFA, the calcium phosphate precipitation transfection technique was used (Babiss et al., 1986, Proc Natl Acad Sci USA 83(7):2167-2171).
Preferential Expression of the hEAAT2 Promoter in PHFA and Deletion Analysis of the hEAAT2 Promoter. hEAAT2 is expressed in brain-derived cells, mainly astrocytes (Tanaka et al., 1997, Science 276(5319):1699-1702; Anderson et al., 2000, Glia 32(1):1-14). Experiments were performed to confirm hEAAT2 promoter activity in normal human astrocytes and to determine expression levels in other cell types (FIG. 2A). Primary early passage and established human normal and tumor cell lines were co-transfected with a putative full-length ˜2.5 kb hEAAT2 promoter, a SacII fragment extending from bp −2426 to bp +44, was cloned into the pGL3-basic vector (Promega), where it drove expression of the firefly luciferase (luc) gene, and a pSV-β-galactosidase expression plasmid. Relative fold expression of a full length hEAAT2 promoter-luciferase (flhEAAT2Prom-luc) construct was determined as described (Su et al., 2000, Oncogene 19(30):3411-3421; Su et al., 2001, Nucleic Acids Res 29(8):1661-1671), and activity versus transfection with a pSV-β-galactosidase plasmid was calculated as described (Su et al., 2000, Oncogene 19(30):3411-3421; Su et al., 2001, Nucleic Acids Res 29(8):1661-1671) to equalize for differences in transfection efficiency.
To examine further the relationship between hEAAT2 and treatment with the various glutamate transporter modulators, transient transfection assays were performed in PHFA using the flhEAAT2Prom-luc constructs and various deletions thereof (FIG. 4D). […] In the case of dbcAMP, promoter activity was enhanced by ˜3-fold.
Background: Reporter assays use an easily measured gene product as a stand-in for the process of interest.

For the next assay, the system named is hEAAT2 protein. Put plainly: Western blot of EAAT2 protein in PHFA. It is filed as cell-based, human. As for the experimental part:
FIG. 5A-E. Effect of pharmacological inhibitors on hEAAT2 promoter activity, and mRNA and protein expression in PHFA following various treatment protocols. A. hEAAT2 promoter activity in PHFA, either untreated (−) or treated with EGF (30 ng/ml), in the absence (−) or presence (+) of KT5720 (5 μM), AG1478 (1 μM), PDTC (100 μM), wortmannin (WRT) (100 nM) or PD98049 (PD) (50 μM). B. hEAAT2 promoter activity in PHFA, either untreated (−) or treated with bromo-cAMP (250 μM) in the absence (−) or presence (+) of KT5720 (5 μM), AG1478 (1 μM), PDTC (100 μM), wortmannin (WRT) (100 nM) or PD98049 (PD) (50 μM). C. hEAAT2 promoter activity in PHFA, either untreated (−) or treated with TNF-α (200 U/ml), in the absence (−) or presence (+) of KT5720 (5 μM), AG1478 (1 μM), PDTC (100 μM), wortmannin (WRT) (100 nM) or PD98049 (PD) (50 μM). D. The effect of the various treatment protocols on hEAAT2 and GAPDH mRNA levels. Upper panel presents relative hEAAT2 RNA expression versus GAPDH expression relative to control untreated or treated samples based on scanning of autoradiograms. Lower panel, actual Northern blots. E. The effect of the various treatment protocols on EAAT2 and ACTIN protein levels. Upper panel presents relative EAAT2 protein expression versus ACTIN expression relative to control untreated or treated samples based on scanning of autoradiograms. Individual experiments were performed 3 times using triplicate samples and S.D. from the mean is presented.
as §2

A further assay has as its system hEAAT2 expression. Put plainly: hEAAT2 expression in PHFA, readout not specified. The format is cell-based, human.
A further assay deals with glutamate uptake by PHFA. The conditions noted are these: Fine et al., 1996; cited from earlier work.

Turning to TNF-α, in the assay on hEAAT2 mRNA (7-day treatment, EGF 30 ng/ml, TGF-α 30 ng/ml, dbcAMP 200 μM, bromo-cAMP 100 μM, TNF-α 200 U/ml), the “hEAAT2 mRNA expression” value was “decreased”. The “time by which hEAAT2 mRNA expression was changed” value in the assay on hEAAT2 mRNA (time course, bromo-cAMP enhanced, TNF-α decreased) is listed as not above 48 h. Besides, in the assay on hEAAT2 transcription, the “relative rate of transcription of hEAAT2 RNA compared with GAPDH” value is listed as “decreased”. For the same substance, in the assay on hEAAT2 promoter, the “hEAAT2 promoter activity (in words)” value is on record as “inhibited”. Besides, in the assay with hEAAT2 protein, the hEAAT2 protein levels entry was “decreased”. The hEAAT2 expression entry in the assay on hEAAT2 expression is recorded as “decreased”. For the same substance, in the assay with glutamate uptake by PHFA, the “glutamate uptake by PHFA” value is given as “inhibits”.
